Experimental data taken from paper PMC11424460, “Inhibitory effects of calcium channel blockers nisoldipine and nimodipine on ivacaftor metabolism and their underlying mechanism” (Frontiers in Pharmacology, 2024).

The compounds below were run on ivacaftor metabolism in rat liver microsomes (RLM) (assay: Screening of 79 drugs (100 μM) for inhibition of ivacaftor metabolism in RLM incubation). Details: each drug 100 μM, 0.3 mg/mL RLM.
Format: in vitro ADME
Method: The supernatants were centrifuged at 100,000 × g for 1 h, and the pellets were resuspended with cold […] PBS. Protein concentrations were determined by Bradford Protein Assay Kit (Thermo Scientific, Waltham, MA, United States).
This system was made up of 200 μL of incubation solution consisting of 0.3 mg/mL RLM or 0.4 mg/mL HLM, 1.0 mM NADPH, pH 7.4 PBS and ivacaftor. […] The solution should be pre-incubated at 37°C for 5 min before adding NADPH. Following the addition of NADPH, the mixture should be incubated for 40 min. The reaction should then be stopped at −80°C. After the enzyme reaction was completed, 20 μL of 500 ng/mL IS solution and 400 μL acetonitrile (protein precipitating agent) were added to the mixture. The mixture was vortexed for 2 min and then centrifuged at 13,000 rpm for 10 min. After centrifugation, 100 μL of the supernatant was quantified using UPLC-MS/MS.
Each drug was used at a concentration of 100 μM as the inhibitor. The culture system was 200 μL and included 0.3 mg/mL RLM, 1.0 mM NADPH, PBS, ivacaftor, and inhibitor. The reaction procedure was the same as the enzyme reaction mentioned above Section 2.2.

SMILES	Metabolic rate (Mean ± SD, % of control)
[H]/N=C(/N)c1ccc(NCc2nc3cc(C(=O)N(CCC(=O)O)c4ccccn4)ccc3n2C)cc1 [Dabigatran]	104.42 ± 27.66 % of control
CN/C(=N/CCSCc1nc[nH]c1C)NC#N [Cimetidine]	62.59 ± 8.46 % of control
COc1ccc([C@@H]2CC(=O)c3c(O)cc(O)cc3O2)cc1O [Hesperetin]	31.12 ± 2.75 % of control
O=C(/C=C/C=C/c1ccc2c(c1)OCO2)N1CCCCC1 [Piperine]	203.66 ± 9.93 % of control
O=c1c(O)c(-c2ccc(O)c(O)c2)oc2cc(O)ccc12 [Fisetin]	44.37 ± 1.28 % of control
CC1(C)O[C@H]2CC(=O)OC[C@]23[C@H]2CC[C@@]4(C)[C@H](c5ccoc5)OC(=O)[C@H]5O[C@]54[C@]2(C)C(=O)C[C@@H]13 [Limonin]	19.90 ± 0.36 % of control
CCCCc1oc2ccc(NS(C)(=O)=O)cc2c1C(=O)c1ccc(OCCCN(CCCC)CCCC)cc1 [Dronedarone]	4.76 ± 0.94 % of control
Oc1ccc(/C=C/c2cc(O)cc(O)c2)cc1 [Resveratrol]	18.69 ± 0.46 % of control
C=C[C@H]1C[N@@]2CC[C@H]1C[C@@H]2[C@@H](O)c1ccnc2ccc(OC)cc12 [Quinidine]	37.44 ± 4.20 % of control
C[C@@H]1O[C@@H](OC[C@H]2O[C@@H](Oc3c(-c4ccc(O)c(O)c4)oc4cc(O)cc(O)c4c3=O)[C@H](O)[C@@H](O)[C@@H]2O)[C@H](O)[C@H](O)[C@H]1O [Rutin]	91.63 ± 0.31 % of control
O=c1c(O)c(-c2ccc(O)cc2)oc2cc(O)cc(O)c12 [Kaempferol]	66.02 ± 4.43 % of control
O=C(O)/C=C/c1ccc(O)c(O)c1 [Caffeic acid]	106.41 ± 1.94 % of control
COc1cc(C2Oc3cc([C@H]4Oc5cc(O)cc(O)c5C(=O)[C@@H]4O)ccc3OC2CO)ccc1O (stereo partly drawn) [Silibinin]	54.73 ± 1.11 % of control
C=C1CC[C@@H]2[C@](C)(CO)[C@H](O)CC[C@@]2(C)[C@@H]1C/C=C1/C(=O)OC[C@H]1O [Andrographolide]	81.58 ± 1.22 % of control
COC(=O)Nc1c(N)nc(-c2nn(Cc3ccccc3F)c3ncc(F)cc23)nc1N [Vericiguat]	76.32 ± 1.42 % of control
CCCCc1oc2ccccc2c1C(=O)c1cc(I)c(OCCN(CC)CC)c(I)c1 [Amiodarone]	5.73 ± 0.85 % of control
CC[C@H](C)C(=O)O[C@H]1C[C@@H](C)C=C2C=C[C@H](C)[C@H](CC[C@@H]3C[C@@H](O)CC(=O)O3)[C@H]21 [Lovastatin]	17.75 ± 0.36 % of control
O=C(O)c1cc(O)c(O)c(O)c1 [Gallic acid]	95.98 ± 6.77 % of control
O=C1CCC[C@@H]2[C@H]3CCCN4CCC[C@@H](CN12)[C@@H]34 [Matrine]	80.23 ± 12.45 % of control
O=C1CCC[C@@H]2[C@H]3CCCN4CCC[C@H](CN12)[C@@H]34 [Sophoridine]	109.11 ± 5.90 % of control
COc1ccc([C@@H]2Sc3ccccc3N(CCN(C)C)C(=O)[C@@H]2OC(C)=O)cc1 [Dilthiazem]	26.04 ± 1.00 % of control
O=C1C=CC[C@@H]2[C@H]3CCCN4CCC[C@@H](CN12)[C@@H]34 [Sophocarpine]	93.46 ± 2.14 % of control
O=C(NC[C@H]1CN(c2ccc(N3CCOCC3=O)cc2)C(=O)O1)c1ccc(Cl)s1 [Rivaroxaban]	85.62 ± 0.92 % of control
O=c1c(O)c(-c2cc(O)c(O)c(O)c2)oc2cc(O)cc(O)c12 [Myricetin]	2.38 ± 0.15 % of control
COc1ccc2cc1Oc1ccc(cc1)C[C@H]1c3cc(c(OC)cc3CCN1C)Oc1c(O)c(OC)cc3c1[C@H](C2)N(C)CC3 [Fangchinoline]	29.41 ± 4.61 % of control
O=C(O)Cc1ccc(O)cc1 [2-(4-Hydroxyphenyl) acetic acid]	101.32 ± 0.94 % of control
COc1ccccc1OCCNCC(O)COc1cccc2[nH]c3ccccc3c12 (stereo not drawn) [Carvedilol]	12.87 ± 0.57 % of control

SMILES	Metabolic rate (Mean ± SD, % of control)
CCC1=C(C)CN(C(=O)NCCc2ccc(S(=O)(=O)NC(=O)N[C@H]3CC[C@H](C)CC3)cc2)C1=O [Glimepiride]	36.97 ± 1.02 % of control
CCCCc1nc(Cl)c(CO)n1Cc1ccc(-c2ccccc2-c2nn[nH]n2)cc1 [Losartan]	35.88 ± 1.19 % of control
CC(=O)CC(c1ccccc1)c1c(O)c2ccccc2oc1=O (stereo not drawn) [Warfarin]	95.32 ± 3.41 % of control
COC(=O)C1=C(C)NC(C)=C(C(=O)OC(C)(C)CN(C)CCC(c2ccccc2)c2ccccc2)C1c1cccc([N+](=O)[O-])c1 (stereo not drawn) [Lercanidipine]	26.70 ± 7.18 % of control
O=C1CCc2cc(OCCCCc3nnnn3C3CCCCC3)ccc2N1 [Cilostazol]	13.12 ± 0.36 % of control
COc1cc(-c2oc3cc(O)cc(O)c3c(=O)c2O)ccc1O [Isorhamnetin]	65.68 ± 3.49 % of control
Cc1cccc(C)c1OCC(C)N (stereo not drawn) [Mexiletine]	95.32 ± 2.42 % of control
COc1cc2cc(Oc3ccc4ccc(=O)oc4c3)c(=O)oc2cc1O [Daphnoretin]	69.60 ± 0.85 % of control
COc1ccccc1Oc1c(NS(=O)(=O)c2ccc(C(C)(C)C)cc2)nc(-c2ncccn2)nc1OCCO [Bosentan]	131.49 ± 2.21 % of control
N[C@@H](CC(=O)N1CCn2c(nnc2C(F)(F)F)C1)Cc1cc(F)c(F)cc1F [Sitagliptin]	97.11 ± 2.13 % of control
CCOC(=O)C1=C(C)NC(C)=C(C(=O)OC)C1c1cccc([N+](=O)[O-])c1 (stereo not drawn) [Nitrendipine]	27.00 ± 0.21 % of control
COc1cc(/C=C/C(=O)CC(=O)/C=C/c2ccc(O)c(OC)c2)ccc1O [Curcumin]	8.19 ± 0.34 % of control
CC(C)=CCC/C(C)=C/C=C/C(C)=C/C=C/C(C)=C/C=C/C=C(C)/C=C/C=C(C)/C=C/C=C(\C)CCC=C(C)C [Lycopene]	7.16 ± 0.77 % of control
O=c1c(O)c(-c2ccc(O)c(O)c2)oc2cc(O)cc(O)c12 [Quercetin]	57.86 ± 5.58 % of control
COc1ccc2cc1Oc1ccc(cc1)C[C@H]1c3cc(c(OC)cc3CCN1C)Oc1c(OC)c(OC)cc3c1[C@H](C2)N(C)CC3 [Tetrandrine]	71.96 ± 16.27 % of control
CCc1cccc2c3c([nH]c12)C(CC)(CC(=O)O)OCC3 (stereo not drawn) [Etodolac]	98.19 ± 1.07 % of control
CC(C)N(CCCCOCC(=O)NS(C)(=O)=O)c1cnc(-c2ccccc2)c(-c2ccccc2)n1 [Selexipag]	28.78 ± 2.21 % of control
CC(C)=CC[C@@H](O)C1=CC(=O)c2c(O)ccc(O)c2C1=O [Shikonin]	41.65 ± 3.13 % of control
CCOc1ccc(Cc2cc([C@]34OC[C@](CO)(O3)[C@@H](O)[C@H](O)[C@H]4O)ccc2Cl)cc1 [PF-04971729]	92.72 ± 3.41 % of control
O=c1cc(-c2ccccc2)oc2cc(O)c(O)c(O)c12 [Baicalein]	15.24 ± 0.00 % of control
C[C@@H]1O[C@@H](O[C@H]2[C@H](Oc3cc(O)c4c(c3)O[C@H](c3ccc(O)cc3)CC4=O)O[C@H](CO)[C@@H](O)[C@@H]2O)[C@H](O)[C@H](O)[C@H]1O [Naringin]	100.87 ± 17.42 % of control
O=c1cc(-c2ccc(O)c(O)c2)oc2cc(O)cc(O)c12 [Luteolin]	95.78 ± 7.92 % of control
O=c1c(-c2ccc(O)cc2)coc2cc(O)ccc12 [Daidzein]	105.78 ± 2.90 % of control
CO[C@H]1O[C@@H]2O[C@@]3(C)CC[C@H]4[C@H](C)CC[C@@H]([C@H]1C)[C@@]24OO3 [Artemether]	41.88 ± 3.81 % of control
O=C1C[C@@H](c2ccc(O)cc2)Oc2cc(O)cc(O)c21 [Naringenin]	42.57 ± 2.14 % of control
CN1C(C(=O)Nc2ccccn2)=C(O)c2sc(Cl)cc2S1(=O)=O [Lornoxicam]	79.39 ± 3.06 % of control
O=C(O)[C@H]1O[C@@H](Oc2cc3oc(-c4ccccc4)cc(=O)c3c(O)c2O)[C@H](O)[C@@H](O)[C@@H]1O [Baicalin]	50.95 ± 0.08 % of control
